Laboratory results published in PMC5078989, “Targeted inhibition of the COP9 signalosome for treatment of cancer” (Nature Communications, 2016).

How the values were obtained:
RPN11 (26S proteasome) = target: T1, RPN11 (26S proteasome) (Homo sapiens, UniProt O00487); experiment: Selectivity assay RPN11 (26S proteasome); assay type: biochemical; conditions: JAMM domain protease
T1 construct: purchased LifeSensors PS026
Procedure: (§1) All biochemical assays were performed at room temperature in 384-well plates in a total volume of 25.25 μl per well. Test compounds were dissolved in 90% (v/v) DMSO/water. For the assays, 250 nl of compound solution was added per well, followed by addition of 12.5 μl protease solution. After 70 min of pre-incubation at room temperature, the reactions were started by addition of 12.5 μl substrate solution and followed either by measuring fluorescence intensity (rhodamine 110-based substrates) or by fluorescence lifetime (PT14-based substrates). The effect of compound on enzymatic activity was obtained from the linear part of the progress curves and determined after 1 h (t=60 min). The final compound concentrations ranged from 100 μM to 1 nM.
RPN11 (26S proteasome). Enzyme purchased from LifeSensors (catalogue number PS026); substrate: K48-linked tetra-ubiquitin chain coupled to a rhodamine 110 fluorophore purchased from LifeSensors (catalogue number NO13–158.01); enzyme concentration: 0.75 nM; substrate concentration: 100 nM; assay buffer: 20 mM Hepes at pH 7.4, 150 mM NaCl, 0.02% Tween-20, 0.5 mM TCEP, 0.05 mM MgCl2, 1 mM ATP and 2 μM ubiquitin aldehyde.

human MMP1 = target: T2, human MMP1 (Homo sapiens, UniProt P03956); experiment: Selectivity assay MMP1; assay type: biochemical
T2 construct: Human MMP1 (Uniprot P03956), amino acids 1–469; made in house; host or cells: stably transfected C127 cells
T2 sequence (P03956 20-469): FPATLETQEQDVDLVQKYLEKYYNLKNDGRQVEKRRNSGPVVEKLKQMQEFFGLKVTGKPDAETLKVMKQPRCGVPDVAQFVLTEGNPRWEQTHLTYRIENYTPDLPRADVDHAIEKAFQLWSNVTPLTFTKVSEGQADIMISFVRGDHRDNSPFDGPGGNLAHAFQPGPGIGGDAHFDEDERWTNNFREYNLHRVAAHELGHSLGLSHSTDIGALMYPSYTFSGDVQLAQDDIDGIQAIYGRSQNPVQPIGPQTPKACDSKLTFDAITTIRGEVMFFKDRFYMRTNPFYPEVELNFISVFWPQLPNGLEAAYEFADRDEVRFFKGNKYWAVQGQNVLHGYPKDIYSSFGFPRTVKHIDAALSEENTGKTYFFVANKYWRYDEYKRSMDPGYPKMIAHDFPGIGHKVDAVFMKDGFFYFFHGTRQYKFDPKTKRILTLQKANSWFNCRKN
Procedure: as §1
Matrix metalloproteinases. […]

HCT116 cells = experiment: Cell viability assay (CellTiter-Glo), HCT116; assay type: cell-based, human; conditions: HCT116, 72 h; cytotoxic
Procedure: (§2) Cells were maintained in a humidified incubator at 37 °C and 5% CO2. […] All cells were negatively tested for mycoplasma contamination either by the vendor or in house. […] If not stated otherwise, cells were harvested after incubation for 16 h and subjected to SDS-PAGE and western blotting. The RNA interference experiment was performed with CSN5 stealth siRNA (#HSS116986) and stealth negative control siRNA (#12935-400) (Invitrogen), which were transfected at 10 nM into HCT116 cells using […] (Qiagen) according to the manufacturer's protocols. Seventy-two hours after transfection, cells were harvested and subjected to SDS-PAGE and western blotting (see Supplementary Fig. 7 for all western blottings performed). A standardized CellTiter-Glo Assay (Promega #G7570) based on the quantification of ATP was applied according to the manufacturer's protocol to measure the amount of viable cells in culture. In brief, cells were seeded into 384-well plates at optimal density for each cell line. After 4 h, compounds were added at different concentrations in growth medium and incubated for another 72 h in a humidifying chamber at 37 °C and 5% CO2. Eventually, equal amounts of CellTiter-Glo reagent were added directly to the cells, incubated for 15 min and luminescence was recorded using PHERAstar plate reader (BMG LABTECH GmbH).

TE-1 cells = experiment: Cell viability assay (CellTiter-Glo), TE-1; assay type: cell-based, human; conditions: TE-1, 72 h; cytostatic
Procedure: as §2

SU-DHL-1 cells = experiment: Cell viability assay (CellTiter-Glo), SU-DHL-1; assay type: cell-based, human
Procedure: as §2

[1] = Blood concentrations of CSN5i-3 in xenograft study; assay type: in vivo, SCID-bg mice; conditions: 50 mg kg^−1 BID and 100 mg kg^−1 QD oral
Procedure: All animal experiments were approved by the Kantonales Veterinäramt Basel-Stadt and were conducted in accordance with the Eidgenössisches Tierschutzgesetz and the Eidgenössische Tierschutzverordnung. SU-DHL-1 cells (1 × 10^7; DSMZ) were implanted subcutaneously into SCID-bg female 7–9-week-old mice (Taconic) and developing tumours were propagated once before subcutaneous transplantation for efficacy studies. Treatment was initiated when tumours reached 150–200 mm^3 volume. […] Randomization was conducted by using an internal computer software (Indigo). CSN5i-3 was formulated in 100 mM citrate buffer pH 3, PEG300, Kolliphor HS15, 1 N HCl (56:30:10:4%w/w). Tumour response is reported as percentage change in tumour volume at the last day of treatment relative to start of treatment. […] At day 10 of treatment blood, samples were taken and concentrations of CSN5i-3 were determined at indicated time points post dose using ultra-high-pressure liquid chromatography/tandem MS. At the end of treatment, tumours were excised and snap frozen in liquid nitrogen. Frozen tumours were pulverized using CryoPrep (Covaris Inc.) and protein lysates were prepared from tumour powder for immunoblot analysis.

Q: With `CC(C)n1nc(C(F)F)cc1C(=O)Nc1ccc([C@H]2[C@@H](O)CCCc3cncn32)c(-c2ccccc2)c1` [CSN5i-3, 3-(Difluoromethyl)-N-(6-((5S,6S)-6-hydroxy-6,7,8,9-tetrahydro-5H-imidazo[1,5-a]azepin-5-yl)-[1,1′-biphenyl]-3-yl)-1-isopropyl-1H-pyrazole-5-carboxamide] as the compound, how does the IC50 (RPN11 (26S proteasome)) read?
A: 53 ± 26 µM

Q: And the IC50 (human MMP1)?
A: > 100 µM

Q: And the AMAX (HCT116 cells)?
A: ≤ −95%

Q: What about the AMAX (TE-1 cells) of the same compound?
A: about −50%

Q: And the EC50 (SU-DHL-1 cells; Homo sapiens, SU-DHL-1, 72 h, read-out: EC50 cell viability)?
A: 13 nM

Q: What about the AMAX (SU-DHL-1 cells; SU-DHL-1 in vitro, 72 h) of the same compound?
A: ≤ −95%

Q: And the “dose dependence of exposure” value [1]?
A: dose-linear exposure
